Here are results for 1 molecule from paper PMC3138742 (PLoS ONE, 2011).

In general, IC50 refers to the concentration that gives 50% inhibition.

Test [1] concerns SK-OV-3 cells transfected with EGFR siRNA. Kind of test: SRB assay after EGFR siRNA transfection. The format is cell-based, human. Particulars: SK-OV-3, two independent pairs of EGFR siRNAs. From the text: Small interfering RNA (siRNA) against EGFR or ErbB2, as well as control siRNA, were designed and synthesized by Shanghai GenePharma Co. Ltd. One pair of ErbB2 siRNA (sequence: 5′ […] 3′), and two pairs of EGFR siRNA (#1 sequence: 5′ […] 3′; #2 sequence: 5′ […] 3′) were applied in this study. Different kind of siRNA (final concentration: 50 nmol/L) was transfected to SK-OV-3 cells with oligofectamine reagent (Invitrogen) according to the manufacturer's instruction.

Test [2] relates to EGFR phosphorylation in NIH3T3-EGFR T790M/L858R cells. Kind of test: Western blot of EGFR phosphorylation. The format is cell-based. Particulars: 6 h, immunoblotting. As to the method: (§1) Cell viability was determined using sulforhodamine B assay. IC50 values were determined based on the results of three independent experiments. […] Whole-cell lysates were assayed for total EGFR and phosphorylation of EGFR by immunoblotting. […] Cell viability was determined using sulforhodamine B assay.
(In general: Immunoblotting shows a protein as a band on a membrane.)

The next test deals with GSK3b (Homo sapiens, UniProt P49841). The following applies: cell-free. How it is done: (§2) The tyrosine kinase activities were determined using enzyme-linked immunosorbant assay (ELISA). The serine/threonine kinase activities were detected by Caliper Mobility Shift Assay on EZ Reader (Caliper Life Sciences, MA) according to the instruction.
Sequence of GSK3b (P49841 whole entry, the tested form may be a part): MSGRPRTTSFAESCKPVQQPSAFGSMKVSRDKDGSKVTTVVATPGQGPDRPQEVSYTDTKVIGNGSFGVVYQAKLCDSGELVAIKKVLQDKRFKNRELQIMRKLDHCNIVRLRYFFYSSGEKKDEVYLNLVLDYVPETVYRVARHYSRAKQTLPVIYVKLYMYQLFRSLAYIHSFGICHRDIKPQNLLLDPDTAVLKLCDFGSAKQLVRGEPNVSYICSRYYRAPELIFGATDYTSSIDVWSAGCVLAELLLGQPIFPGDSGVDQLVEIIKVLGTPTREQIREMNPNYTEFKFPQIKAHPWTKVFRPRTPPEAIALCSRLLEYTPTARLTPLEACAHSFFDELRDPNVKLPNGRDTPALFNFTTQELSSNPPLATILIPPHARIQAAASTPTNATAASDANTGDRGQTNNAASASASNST
(§3) The kinase domain of EGFR, ErbB-2, IGF1R, VEGFR2, FGFR1, PDGFRα, c-Src, c-Met, RON, c-Kit, EphA2 and EphB2 were expressed using the Bac-to-Bac^TM baculovirus expression system (Invitrogen, Carlsbad, CA, USA) and purified on Ni-NTA columns (QIAGEN Inc., Valencia, CA, USA). VEGFR1, PDGFRβ and c-Abl were purchased from Upstate Biotechnology Inc. (Charlottesville, Virginia, USA). […] EGF was purchased from R&D, Minneapolis, […]. Poly(Glu-Tyr)(4:1), the substrate of tyrosine kinase, was from Sigma-Aldrich Corp. St. Louis, MO, USA.

Another test has as its target p70S6K (Homo sapiens, UniProt P23443). The following applies: cell-free. As to the method: as §2, §3
The target of another test is Pim2 (Homo sapiens, UniProt Q9P1W9). The following applies: Pim2, cell-free. How it is done: as §2, §3
Sequence of Pim2 (Q9P1W9 whole entry): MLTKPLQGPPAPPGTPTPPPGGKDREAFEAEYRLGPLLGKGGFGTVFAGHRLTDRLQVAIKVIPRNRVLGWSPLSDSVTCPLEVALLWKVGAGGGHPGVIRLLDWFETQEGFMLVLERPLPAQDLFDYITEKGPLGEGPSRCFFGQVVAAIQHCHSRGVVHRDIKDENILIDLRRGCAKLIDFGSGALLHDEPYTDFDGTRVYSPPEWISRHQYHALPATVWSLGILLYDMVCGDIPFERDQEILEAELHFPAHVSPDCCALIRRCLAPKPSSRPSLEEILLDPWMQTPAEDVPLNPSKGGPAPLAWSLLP
For another test, the target named is AKT1 (Homo sapiens, UniProt P31749). Particulars: AKT1, cell-free. How it is done:
as §2, §3

The target of a further test is CDK2 (Homo sapiens, UniProt P24941). Particulars: CDK2, cell-free. How it is done: as §2, §3
The target in a further test is AUR A (Homo sapiens, UniProt O14965). The following applies: cell-free. As to the method: as §2, §3
Sequence of AUR A (O14965 whole entry): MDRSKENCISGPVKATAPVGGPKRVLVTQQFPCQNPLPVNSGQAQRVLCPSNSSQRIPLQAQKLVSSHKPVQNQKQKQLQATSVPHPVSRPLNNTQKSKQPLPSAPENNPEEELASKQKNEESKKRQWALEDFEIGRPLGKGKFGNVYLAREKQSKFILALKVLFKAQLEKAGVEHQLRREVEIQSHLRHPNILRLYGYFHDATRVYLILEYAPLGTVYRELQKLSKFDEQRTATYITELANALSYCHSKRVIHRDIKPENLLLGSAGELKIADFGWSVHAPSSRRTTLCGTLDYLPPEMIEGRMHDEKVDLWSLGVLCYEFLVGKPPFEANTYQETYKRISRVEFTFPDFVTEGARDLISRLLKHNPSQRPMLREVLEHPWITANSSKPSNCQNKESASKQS
In another test the target is PKCb2 (Homo sapiens, UniProt P05771). Particulars: PKCb2, cell-free. How it is done: as §2, §3
Sequence of PKCb2 (P05771 1-673 isoform P05771-2): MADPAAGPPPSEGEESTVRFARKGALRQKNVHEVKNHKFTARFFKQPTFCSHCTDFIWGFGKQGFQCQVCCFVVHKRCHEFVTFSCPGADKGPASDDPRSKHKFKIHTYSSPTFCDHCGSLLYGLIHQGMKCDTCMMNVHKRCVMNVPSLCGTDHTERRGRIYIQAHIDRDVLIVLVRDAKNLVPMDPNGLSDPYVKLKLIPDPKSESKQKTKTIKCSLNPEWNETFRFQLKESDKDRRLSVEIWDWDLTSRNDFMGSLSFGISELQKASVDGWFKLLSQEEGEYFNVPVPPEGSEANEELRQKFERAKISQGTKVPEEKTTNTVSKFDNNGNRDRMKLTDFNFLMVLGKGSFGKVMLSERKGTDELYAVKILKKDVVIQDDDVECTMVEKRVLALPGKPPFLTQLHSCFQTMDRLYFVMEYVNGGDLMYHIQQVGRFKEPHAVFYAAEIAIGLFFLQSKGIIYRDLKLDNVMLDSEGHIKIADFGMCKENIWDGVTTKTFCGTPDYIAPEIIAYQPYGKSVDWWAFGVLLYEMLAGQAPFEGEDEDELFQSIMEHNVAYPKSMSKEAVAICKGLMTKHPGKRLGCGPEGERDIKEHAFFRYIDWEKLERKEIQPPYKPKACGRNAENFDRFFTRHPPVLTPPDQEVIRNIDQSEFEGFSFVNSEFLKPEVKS
The subject of the next test is A549 cells. Kind of test: Cell proliferation SRB assay. The following applies: Homo sapiens, A549, 72 h, range given for four cell lines together, read-out: IC50 (antiproliferative). The format is cell-based. For orientation: The SRB assay estimates cell density from bound dye.
Another test relates to SK-OV-3 cells. The test is described as follows: Cell proliferation SRB assay. It counts as cell-based. The following applies: Homo sapiens, SK-OV-3, 72 h, range given for four cell lines together, read-out: IC50 (antiproliferative). As to the method:
(§4) Cell proliferation was evaluated using the SRB (Sulforhodamine B) assay as previously described. Briefly, cells were seeded into 96-well plates and grown for 24 h. […] The medium remained unchanged until the completion of the experiment. The cells were then fixed with 10% precooled trichloroacetic acid (TCA) for 1 h at 4°C and stained for 15 min at room temperature with 100 μL of 4 mg/mL SRB solution (Sigma) in 1% acetic acid. The SRB was then removed, and the cells were quickly rinsed five times with 1% acetic acid. After cells were air-dried, protein-bound dye was dissolved in 150 μL of 10 mmol/L Tris base for 5 min and measured at 515 nm using a multiwell spectrophotometer (VERSAmax, Molecular Devices). […] The IC50 value was obtained by the Logit method and was determined from the results of at least 3 independent tests.

Another test has as its system MDA-MB-468 cells. Kind of test: Cell proliferation SRB assay. The format is cell-based. The following applies: Homo sapiens, MDA-MB-468, 72 h, range given for four cell lines together, read-out: IC50 (antiproliferative). As to the method:
as §4

For another test, the system named is NCI-H23 cells. The test is described as follows: Cell proliferation SRB assay. It counts as cell-based. Particulars: Homo sapiens, NCI-H23, 72 h, range given for four cell lines together, read-out: IC50 (antiproliferative). As to the method: as §4
The subject of test [3] is NIH3T3-EGFR T790M/L858R cells. The test is described as follows: Cell proliferation SRB assay. It counts as cell-based. Particulars: 72 h. How it is done: as §2, §1
Test [4] relates to EGFR phosphorylation in A549 cells. Kind of test: Western blot of EGF-induced EGFR phosphorylation. The format is cell-based, human. Particulars: 0.01 µM, 4 h, EGF 50 ng/ml 15 min.
A further test concerns the target EGFR (Homo sapiens, UniProt P00533). The test is described as follows: Rapid dilution irreversibility experiment. It counts as biochemical. Also on record: The kinase domain of EGFR, ErbB-2, IGF1R, VEGFR2, FGFR1, PDGFRα, c-Src, c-Met, RON, c-Kit, EphA2 and EphB2 were expressed; made in house. The following applies: preincubated 30 min at 100-fold IC50, diluted 100-fold, sampled 180 minutes. How it is done: (§5) The microplate was placed in the EZ Reader (Caliper Life Sciences, MA) and wells were repeatedly sampled for 180 minutes.
(§6) To verify this, we determined the reversibility of EGFR and ErbB2 binding using a dilution method. […] After incubating, the enzyme/inhibitor mixture is diluted 100-fold (i.e., to normal reaction conditions), reaction buffer plus ATP and substrate are added, and receptor kinase activity is measured continuously. In general, a reversible inhibitor dissociates quickly, allowing immediate recovery of enzymatic activity, whereas a slowly reversible inhibitor allows a gradual increase in activity. In contrast, an irreversible inhibitor prevents recovery of enzymatic activity.

For a further test, the target named is ErbB2 (Homo sapiens, UniProt P04626). The test is described as follows: Rapid dilution irreversibility experiment. The format is biochemical. Details: The kinase domain of EGFR, ErbB-2, IGF1R, VEGFR2, FGFR1, PDGFRα, c-Src, c-Met, RON, c-Kit, EphA2 and EphB2 were expressed; made in house. Particulars: preincubated 30 min at 100-fold IC50, diluted 100-fold, sampled 180 minutes. As to the method:
as §5, §6

Sequence of p70S6K (P23443 whole entry): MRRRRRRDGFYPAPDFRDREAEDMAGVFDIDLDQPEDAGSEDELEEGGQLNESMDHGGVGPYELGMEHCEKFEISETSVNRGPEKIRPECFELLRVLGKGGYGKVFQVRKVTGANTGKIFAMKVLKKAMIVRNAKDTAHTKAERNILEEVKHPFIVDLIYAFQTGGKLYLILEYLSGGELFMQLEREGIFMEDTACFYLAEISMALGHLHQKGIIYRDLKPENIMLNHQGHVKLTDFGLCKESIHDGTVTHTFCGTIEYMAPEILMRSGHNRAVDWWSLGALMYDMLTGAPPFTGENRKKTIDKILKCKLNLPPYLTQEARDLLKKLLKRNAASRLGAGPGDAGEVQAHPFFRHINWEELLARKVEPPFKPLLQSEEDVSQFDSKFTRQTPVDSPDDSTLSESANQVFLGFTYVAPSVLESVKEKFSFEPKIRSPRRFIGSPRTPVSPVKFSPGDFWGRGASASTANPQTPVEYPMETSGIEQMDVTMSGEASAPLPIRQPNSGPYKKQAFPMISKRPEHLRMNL
Sequence of AKT1 (P31749 whole entry): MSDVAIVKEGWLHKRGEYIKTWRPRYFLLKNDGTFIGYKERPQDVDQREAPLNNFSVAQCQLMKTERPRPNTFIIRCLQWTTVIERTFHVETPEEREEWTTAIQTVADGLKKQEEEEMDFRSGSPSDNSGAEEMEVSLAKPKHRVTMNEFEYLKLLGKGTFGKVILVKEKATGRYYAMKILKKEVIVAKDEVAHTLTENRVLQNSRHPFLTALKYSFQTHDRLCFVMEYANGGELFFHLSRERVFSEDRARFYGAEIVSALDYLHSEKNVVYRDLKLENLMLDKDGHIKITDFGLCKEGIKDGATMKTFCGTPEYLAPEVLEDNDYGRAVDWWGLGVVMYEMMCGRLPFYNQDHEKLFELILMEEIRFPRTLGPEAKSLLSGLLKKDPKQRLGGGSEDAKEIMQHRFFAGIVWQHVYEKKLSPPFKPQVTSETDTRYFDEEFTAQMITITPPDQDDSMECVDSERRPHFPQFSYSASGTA
Sequence of EGFR (P00533 712-979 limits assumed): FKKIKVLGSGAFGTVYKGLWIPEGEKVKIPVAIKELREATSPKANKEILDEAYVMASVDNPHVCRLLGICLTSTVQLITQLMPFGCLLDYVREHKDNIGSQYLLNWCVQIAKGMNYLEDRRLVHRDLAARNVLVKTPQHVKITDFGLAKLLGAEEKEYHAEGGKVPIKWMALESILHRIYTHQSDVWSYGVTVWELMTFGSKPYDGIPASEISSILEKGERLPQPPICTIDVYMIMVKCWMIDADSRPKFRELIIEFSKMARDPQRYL
Sequence of ErbB2 (P04626 720-987 limits assumed): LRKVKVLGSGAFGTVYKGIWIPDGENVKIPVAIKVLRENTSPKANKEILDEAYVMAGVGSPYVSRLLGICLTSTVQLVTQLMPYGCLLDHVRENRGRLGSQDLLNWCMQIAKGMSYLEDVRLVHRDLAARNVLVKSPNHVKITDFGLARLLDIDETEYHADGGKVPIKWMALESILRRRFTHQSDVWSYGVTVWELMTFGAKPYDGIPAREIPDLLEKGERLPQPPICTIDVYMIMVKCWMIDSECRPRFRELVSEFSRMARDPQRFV

For the molecule `C=CC(=O)Nc1ccc2ncnc(Nc3ccc(OCc4cccc(F)c4)c(Cl)c3)c2c1` [AST1306], the “antiproliferative activity after EGFR knockdown” value in test [1] is “did not significantly affect”. The “inhibition of EGFR phosphorylation” value in test [2] is on record as “effectively inhibited EGFR phosphorylation”. The IC50 against GSK3b, against p70S6K, on Pim2, against AKT1, against CDK2 and against AUR A was > 10 µM throughout. Besides, the IC50 is > 10 µM against PKCb2; 6.2 to 7.5 µM with A549 cells; 6.2 to 7.5 µM in the test with SK-OV-3 cells; 6.2 to 7.5 µM in the test on MDA-MB-468 cells; 6.2 to 7.5 µM in the test with NCI-H23 cells. In addition, in [3], the “inhibition of cell growth” value is given as “significant, concentration-dependent inhibition”. Moreover, the “EGF-induced EGFR phosphorylation (phospho-EGFR bands)” value in test [4] is “almost disappeared”. In addition, the “recovery of EGFR enzymatic activity after dilution” value on EGFR is “virtually no EGFR or ErbB2 activity was recovered”. Also, the “recovery of ErbB2 enzymatic activity after dilution” value on ErbB2 is “virtually no EGFR or ErbB2 activity was recovered”.
